Source: patent publication US5830851A (Affymax Technologies N.V., priority 1995, dated 1998)
“Also recorded” adds a separate entry of the source. Residues, ends and D or L forms follow the SMILES beside them. No end group written: not given here.

Key:
[1] = molecular target: T1, truncated human erythropoietin receptor (Homo sapiens, UniProt P19235); assay: cell-based
T1 sequence (P19235 25-468 limits assumed): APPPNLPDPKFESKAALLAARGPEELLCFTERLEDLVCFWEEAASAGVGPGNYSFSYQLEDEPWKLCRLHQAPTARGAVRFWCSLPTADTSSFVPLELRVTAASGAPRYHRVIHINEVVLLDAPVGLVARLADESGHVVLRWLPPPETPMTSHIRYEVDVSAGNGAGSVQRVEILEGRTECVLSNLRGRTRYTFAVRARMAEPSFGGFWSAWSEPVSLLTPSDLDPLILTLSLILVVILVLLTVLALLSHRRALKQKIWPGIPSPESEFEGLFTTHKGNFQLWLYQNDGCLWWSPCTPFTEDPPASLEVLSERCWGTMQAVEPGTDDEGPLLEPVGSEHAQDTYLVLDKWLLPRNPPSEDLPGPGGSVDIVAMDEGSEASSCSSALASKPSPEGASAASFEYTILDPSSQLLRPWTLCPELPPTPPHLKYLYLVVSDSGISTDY
Experimental: Cells are counted and resuspended at a concentration of 800,000 cells/ml. Approximately forty thousand cells (50μ) are added to each well of a 96 well microtiter plate. Peptide is added to each well in triplicate. A standard dose response determination is run with each series of peptides. After a forty-two hr incubation (≈2 doubling), each well is pulsed with 1 μCi/well Thymidine. Cells are incubated an additional six hr at which time cells are harvested and counted to assess thymidine incorporation as an indicator of cell proliferation.

[2] = molecular target: T2, human EPO-R (FDCP-1/hEPO-R cells) (Homo sapiens, UniProt P19235); assay: FDCP-1/hEPO-R cell proliferation bioassay; assay type: cell-based
T2 construct: expressed in transfected cells; host or cells: FDCP-1 (murine hematopoietic progenitor cell line)
T2 sequence (P19235 25-508): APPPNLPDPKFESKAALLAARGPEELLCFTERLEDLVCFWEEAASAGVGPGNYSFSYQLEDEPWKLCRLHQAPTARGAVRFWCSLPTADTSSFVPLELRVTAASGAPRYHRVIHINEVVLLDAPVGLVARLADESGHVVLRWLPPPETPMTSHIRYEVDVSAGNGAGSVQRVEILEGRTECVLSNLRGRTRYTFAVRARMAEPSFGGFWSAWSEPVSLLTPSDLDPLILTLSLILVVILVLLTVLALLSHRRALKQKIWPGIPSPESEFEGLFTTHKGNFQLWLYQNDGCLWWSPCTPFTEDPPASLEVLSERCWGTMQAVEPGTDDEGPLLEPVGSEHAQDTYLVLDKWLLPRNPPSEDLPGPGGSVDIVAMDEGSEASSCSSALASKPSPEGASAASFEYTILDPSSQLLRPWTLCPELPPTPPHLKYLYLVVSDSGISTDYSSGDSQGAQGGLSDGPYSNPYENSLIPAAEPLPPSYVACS
Experimental: One assay utilized FDCP-1, a growth factor dependent murine multi-potential primitive hematopoietic progenitor cell line (see, e.g., Dexter et al. (1980) J. Exp. Med. 152:1036-1047), as the parental cell line. This cell line can proliferate, but not differentiate, when supplemented with WEHI3-conditioned media (a medium that contains IL-3, ATCC number T1B68).
In brief, the cells are grown to half stationary density in the presence of the necessary growth factors. The cells are then washed in PBS and starved for 16-24 hours in whole media without the growth factors. After determining the viability of the cells, stock solutions (in whole media without the growth factors) are made to give about 10^5 cells per 50 microliters. […] Cells (50 microliters) are added to each well and the cells are incubated 24-48 hours, at which point the negative controls should die or be quiescent. Cell proliferation is then measured by techniques known in the art, such as an MTT assay which correlates with ^3 H-thymidine incorporation as an indication of cell proliferation (see, Mosmann (1983) J. Immunol. Methods 65:55).

[3] = molecular target: T3, extracellular domain of the human erythropoietin receptor (EPO binding protein, EBP) (Homo sapiens, UniProt P19235); assay: Immobilized EBP based [125I]EPO competition binding assay; conditions: IC50 relative to RWJ61233 (IC50 of 5 μM)
T3 construct: made in house; host or cells: E. coli
T3 sequence (P19235 25-250 limits assumed): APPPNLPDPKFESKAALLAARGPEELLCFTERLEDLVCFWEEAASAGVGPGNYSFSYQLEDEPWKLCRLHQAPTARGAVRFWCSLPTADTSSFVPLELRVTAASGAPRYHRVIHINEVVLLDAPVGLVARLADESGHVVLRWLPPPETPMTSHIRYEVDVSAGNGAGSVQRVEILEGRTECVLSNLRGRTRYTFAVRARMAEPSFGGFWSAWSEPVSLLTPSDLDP
Experimental: The iodoacetyl activation chemistry of Sufolink beads (Pierce Chemical Co, Rockford, Ill.) is specific for free thiols and assures that the linkage is not easily reversible. EBP-Sulfolink beads were made as follows: SulfoLink gel suspension (10 ml) was mixed with coupling buffer (40 ml: 50 mM Tris, pH 8.3, 5 mM EDTA) and the gel was allowed to settle. The supernatant was removed and the EBP (0.3-1 mg/ml in coupling buffer) to be bound was added directly to the washed beads. The mixture was rocked gently for 30 minutes at room temperature, and the beads were allowed to settle for 1 hour at room temperature. […] The amount of EBP which was covalently bound to the beads was determined by comparing the OD280 of the original EBP solution to the total OD280 recovered in the reaction supernatant and the two 20 ml washes.
Binding assays were initiated by the addition of EBP beads (50 μl) to individual reaction tubes. […] The tubes were incubated for five hours (a time period experimentally determined as adequate for the establishment of equilibrium) at room temperature with gentle rocking. […]
Competitive binding analysis assays of candidate peptides were performed as outlined below. […] The columns containing the washed beads were placed in 12×75 mm glass tubes and bound radioactivity levels were determined using a gamma counter.

## CC(C)C[C@@H]1NC(=O)[C@@H]2CCCN2C(=O)CNC(=O)[C@H](Cc2ccccc2)NC(=O)[C@H](Cc2c[nH]cn2)NC(=O)[C@@H](NC(=O)[C@H](CO)NC(=O)[C@H](Cc2ccc(N)cc2)NC(=O)[C@@H](NC(=O)CNC(=O)CN)[C@@H](C)O)CSSC[C@@H](C(=O)N[C@@H](CCCCN)C(=O)N2CCC[C@H]2C(=O)N[C@@H](CCC(N)=O)C(=O)NCC(=O)NCC(N)=O)NC(=O)[C@H](C(C)C)NC(=O)[C@H](Cc2c[nH]c3ccccc23)NC(=O)[C@H]([C@@H](C)O)NC1=O [RWJ 62019, GGTXSCHFGPLTWVCKPQGG] (HELM PEPTIDE1{G.G.T.[Nc1ccc(C[C@H](N[*:1])C(=O)[*:2])cc1].S.C.H.F.G.P.L.T.W.V.C.K.P.Q.G.G.[am]}$PEPTIDE1,PEPTIDE1,6:R3-15:R3$$$V2.0)
[1]
  EC50: 3 µM

## CC(C)C[C@@H]1NC(=O)[C@@H]2CCCN2C(=O)CNC(=O)[C@H](Cc2ccccc2)NC(=O)[C@H](Cc2c[nH]cn2)NC(=O)[C@@H](NC(=O)[C@H](CO)NC(=O)[C@H](Cc2ccc(O)cc2)NC(=O)[C@@H](NC(=O)CNC(=O)CN)[C@@H](C)O)CSSC[C@@H](C(=O)N[C@@H](CCCCN)C(=O)N2CCC[C@H]2C(=O)N[C@@H](CCC(N)=O)C(=O)NCC(=O)NCC(=O)N[C@@H](CO)C(=O)N[C@@H](CO)C(=O)N[C@@H](CCCCNC(=O)CCCCCNC(=O)CCCC[C@@H]2SC[C@@H]3NC(=O)N[C@@H]32)C(N)=O)NC(=O)[C@H](C(C)C)NC(=O)[C@H](Cc2c[nH]c3ccccc23)NC(=O)[C@H]([C@@H](C)O)NC1=O [AF11505] (HELM PEPTIDE1{G.G.T.Y.S.C.H.F.G.P.L.T.W.V.C.K.P.Q.G.G.S.S.K.[am]}|PEPTIDE2{[O=C1N[C@H]2[C@H](CS[C@H]2CCCCC(=O)[*:2])N1].[O=C(CCCCCN[*:1])[*:2]]}$PEPTIDE1,PEPTIDE2,23:R3-2:R2|PEPTIDE1,PEPTIDE1,6:R3-15:R3$$$V2.0; N-terminus and C-terminus assumed; bridges inferred)
[2]; free peptides, read-out: EPO-ED50
  EC50: ~1 µM

## CC(C)C[C@@H]1NC(=O)[C@@H]2CCCN2C(=O)CNC(=O)[C@H](Cc2ccccc2)NC(=O)[C@H](Cc2c[nH]cn2)NC(=O)[C@@H](NC(=O)[C@H](CO)NC(=O)[C@H](Cc2ccc([N+](=O)[O-])cc2)NC(=O)[C@@H](NC(=O)CNC(=O)CN)[C@@H](C)O)CSSC[C@@H](C(=O)N[C@@H](CCCCN)C(=O)N2CCC[C@H]2C(=O)N[C@@H](CCC(N)=O)C(=O)NCC(=O)NCC(N)=O)NC(=O)[C@H](C(C)C)NC(=O)[C@H](Cc2c[nH]c3ccccc23)NC(=O)[C@H]([C@@H](C)O)NC1=O [RWJ 61894, GGTXSCHFGPLTWVCKPQGG] (HELM PEPTIDE1{G.G.T.[O=C([C@H](Cc1ccc([N+](=O)[O-])cc1)N[*:1])[*:2]].S.C.H.F.G.P.L.T.W.V.C.K.P.Q.G.G.[am]}$PEPTIDE1,PEPTIDE1,6:R3-15:R3$$$V2.0)
[1]
  EC50: 0.8 µM

## RWJ 61721: sequence analog peptide shown only as a drawing in Table 19 (GGTYSEHFGPLTWVKKPQGG)
[3]
  Relative Binding: > 100

## CC(=O)NCC(=O)NCC(=O)N[C@H](C(=O)N[C@@H](Cc1ccc(O)cc1)C(=O)N[C@@H](CO)C(=O)N[C@H]1CSSC[C@@H](C(=O)N[C@@H](CCCCN)C(=O)N2CCC[C@H]2C(=O)N[C@@H](CCC(N)=O)C(=O)NCC(=O)NCC(N)=O)NC(=O)[C@H](C(C)C)NC(=O)[C@H](Cc2c[nH]c3ccccc23)NC(=O)[C@H]([C@@H](C)O)NC(=O)[C@H](CC(C)C)NC(=O)[C@@H]2CCCN2C(=O)CNC(=O)[C@H](Cc2ccccc2)NC(=O)[C@H](Cc2c[nH]cn2)NC1=O)[C@@H](C)O [RWJ 62146] (HELM PEPTIDE1{[ac].G.G.T.Y.S.C.H.F.G.P.L.T.W.V.C.K.P.Q.G.G.[am]}$PEPTIDE1,PEPTIDE1,7:R3-16:R3$$$V2.0)
[3]
  Relative Binding: 4

## GGTYSCHFGPLTWVCKPQGGSSK+G anti-B: biotinylated peptide preincubated with purified goat anti-biotin IgG at a 2:1 molar ratio (cysteine pairing not given here; also: biotinylated, site not given here, preincubated with goat anti-biotin IgG at 2:1 molar ratio)
[2]
  reduction in EPO-ED50 / increase in potency over the free peptide: one log reduction

## Streptavidin: streptavidin alone, control for the complex [reference compound]
[2]; tested without peptide
  stimulatory effect alone: some small stimulatory effect at the highest concentrations; also recorded: marginal activity at high concentrations
